Laboratory results: paper PMC12263422, “Cryo-EM structure of the human THIK-1 K2P K^+ channel reveals a lower Y gate regulated by lipids and anesthetics” (Nature Structural & Molecular Biology, 2025)
Values joined by “and” are separate entries in the source; they are usually repeats but may differ in a detail not shown here. Equal values may be shown once. Each block holds one molecule with its values, some of them ahead of it.

Molecular target: T1, THIK-1 T237A (Homo sapiens, UniProt Q9HB14, T237A)
T1 construct: expressed in transfected cells; host or cells: Xenopus oocytes (mRNA injection)
T1 sequence (Q9HB14 1-408 T237A): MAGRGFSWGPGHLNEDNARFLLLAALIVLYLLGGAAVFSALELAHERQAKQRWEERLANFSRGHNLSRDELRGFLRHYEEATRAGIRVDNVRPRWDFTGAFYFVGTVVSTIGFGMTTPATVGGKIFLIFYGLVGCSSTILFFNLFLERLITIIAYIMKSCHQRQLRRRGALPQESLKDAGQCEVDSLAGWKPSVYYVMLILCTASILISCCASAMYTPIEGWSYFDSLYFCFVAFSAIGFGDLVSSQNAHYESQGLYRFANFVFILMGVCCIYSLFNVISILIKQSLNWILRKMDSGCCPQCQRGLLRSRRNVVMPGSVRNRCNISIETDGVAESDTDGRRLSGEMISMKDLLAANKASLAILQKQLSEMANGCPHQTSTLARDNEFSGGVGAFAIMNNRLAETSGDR
Assay: Inside-out excised patch recordings, oocytes, THIK-1 T237A mutant
Type: cell-based
Description: Human K2P13.1 THIK-1 (GenBank accession number: NM_022054) and human K2P12.1 THIK-2 (NM_022055.1) were used in this study. For functional expression studies, the respective K^+ channel subtype coding sequences were subcloned into the oocyte expression vector pSGEM or the dual-purpose expression vector pFAW[41] and verified by sequencing. All mutant channels were obtained by site-directed mutagenesis and verified by sequencing. To increase surface expression and macroscopic currents, measurements of THIK-2 channels used a mutated ER retention motif, (R11A R12A R14A R15A R16A; THIK-2*)[20]. Vector DNA was linearized with NheI or MluI, and mRNA was synthesized in vitro using the SP6 or T7 AmpliCap Max High Yield Message Maker Kit (Cellscript, USA) or HiScribe T7 ARCA mRNA Kit (New England Biolabs).
Two-electrode voltage–clamp (TEVC) studies were performed in Xenopus oocytes. All animal use conformed to the Guide for the Care and Use of Laboratory Animals (NIH Publication 85–23), and all experiments using Xenopus toads were approved by the local ethics panels. Oocytes were stored at 17 °C in ND96 recording solution composed of (in mM): 96 NaCl, 2 KCl, 1.8 CaCl2, 1 MgCl2, 5 HEPES (pH 7.5 adjusted with NaOH and HCl), supplemented with Na-pyruvate (275 mg L^–1), theophylline (90 mg L^–1) and gentamicin (50 mg L^–1). Oocytes were injected with 1 ng mRNA for WT or mutant channels, and were incubated for 24–48 h at 17 °C. Two-electrode voltage clamp recordings were then performed as previously described[42],[43]. For macroscopic patch–clamp measurements, oocytes were obtained as described above incubated at 17 °C in a solution containing (mM): 54 NaCl, 30 KCl, 2.4 NaHCO3, 0.82 MgSO4 ×7 H2O, 0.41 CaCl2, 0.33 Ca(NO3)2 ×4 H2O and 7.5 TRIS (pH 7.4 adjusted with NaOH and HCl) for 1–4 days before use. Excised patch recordings in inside-out configuration conditions were performed at room temperature. Patch pipettes were made from thick-walled borosilicate glass GB 200TF-8P (Science Products), had resistances of 0.2–0.5 MΩ (tip diameter, 10–25 µm) and filled with a pipette solution (in mM): 120 KCl, 10 HEPES and 3.6 CaCl2 (pH 7.4 adjusted with KOH and HCl). Intracellular bath solutions and compounds were applied to the cytoplasmic side of excised patches for the various K^+ channels through a gravity flow multi-barrel pipette system. The intracellular solution had the following composition (in mM): 120 KCl, 10 HEPES, 2 EGTA and 1 pyrophosphate (pH adjusted with KOH and HCl). Currents were recorded with an EPC10 amplifier (HEKA Electronics) and sampled at 10 kHz or higher, with filtering set to 3 kHz (–3 dB) or higher, as appropriate for sampling rate. For measurements of GPCR activation, whole-cell currents were recorded for THIK-1 in transiently transfected HEK-293 cells. Cells were stimulated by a ramp protocol between −100 and +60 mV (holding potential, −80 mV). The pipette solution was composed of (in mM): 140 KCl, 2 MgCl2, 1 CaCl2, 2.5 EGTA and 10 HEPES (pH 7.3 adjusted with KOH and HCl). The extracellular bath solution had the following composition (in mM): 135 NaCl, 5 KCl, 2 MgCl2, 2 CaCl2, 10 glucose and 10 HEPES pH (pH 7.3 adjusted with NaOH and HCl). Oxotremorine M (Oxo-M) was added to extracellular bath solution to obtain the final concentration. Single-channel currents were recorded with an Axopatch 200B amplifier through a Digidata 1440A digitizer (Molecular Devices). Data were filtered at 2 kHz and recorded at a 200-kHz sampling rate with the program Clampex (Molecular Devices). Pipette solution and bath solution for cell-attached recordings contained (in mM): 140 KCl, 2 MgCl2, 1 CaCl2 and 10 HEPES (pH 7.4 adjusted with KOH and HCl). For inside-out recordings, the bath solution contained (in mM): 140 KCl, 2 MgCl2, 1 CaCl2 and 10 HEPES (pH 7.2 adjusted with KOH and HCl). All experiments were conducted at room temperature. […]

inhibition at 242 µM (isoflurane 0.242 mM, THIK-1 T237A): 3.32%
inhibition at 485 µM (isoflurane 0.485 mM, THIK-1 T237A): 6.3%
inhibition at 2420 µM (isoflurane 2.42 mM, THIK-1 T237A): 10.5%
inhibition at 4850 µM (isoflurane 4.85 mM, THIK-1 T237A): 14.9%
inhibition at 24200 µM (isoflurane 24.2 mM, THIK-1 T237A): 41.2%
SMILES: FC(F)OC(Cl)C(F)(F)F (stereo not drawn) [Isoflurane, isoflurane]
Inhibition (%) (4.9 mM Isoflurane, T237A, individual recordings): 17.406% and 8.395% and 11.371% and 16.439% and 18.927% and 20.492% and 11.299%

inhibition at 240 µM (0.24 mM Sevoflurane, T237A, mean): 10%
inhibition at 23 µM (THIK-1 T237A, 0.023 mM sevoflurane): 2.46%
inhibition at 47 µM (THIK-1 T237A, 0.047 mM sevoflurane): 5.91%
inhibition at 468 µM (THIK-1 T237A, 0.468 mM sevoflurane): 21.7%
inhibition at 2340 µM (THIK-1 T237A, 2.34 mM sevoflurane): 65.6%
SMILES: FCOC(C(F)(F)F)C(F)(F)F [Sevoflurane, sevoflurane]
Inhibition (%) (0.24 mM Sevoflurane, T237A, individual recordings): 3.46% and 13.30% and 10.43% and 14.31% and 9.40% and 9.31%

SMILES: CCCCC[N+](CCCCC)(CCCCC)CCCCC [TPenA, tetrapentylammonium]
IC50 (TPenA IC50, T237A mutant): 751 ± 69 µM
IC50 (TPenA IC50, THIK-1 T237A, individual recordings): 1130 µM and 808 µM and 597 µM and 535 µM and 580 µM and 782 µM and 1030 µM and 536 µM and 917 µM and 590 µM
IC50 (TPenA IC50, THIK-1 T237A, mean): 751 µM

inhibition at 152 µM (halothane 0.152 mM, THIK-1 T237A): 2.14%
inhibition at 304 µM (halothane 0.304 mM, THIK-1 T237A): 5.74%
inhibition at 1520 µM (halothane 1.52 mM, THIK-1 T237A): 14%
inhibition at 3040 µM (halothane 3.04 mM, THIK-1 T237A): 21.8%
inhibition at 15200 µM (halothane 15.2 mM, THIK-1 T237A): 61.5%
SMILES: FC(F)(F)C(Cl)Br (stereo not drawn) [halothane]
Inhibition (%) (3.0 mM halothane, T237A, individual recordings): 33.289% and 24.219% and 32.586% and 20.723% and 17.184% and 21.968% and 14.425% and 17.317% and 20.857% and 12.818% and 13.953% and 26.198% and 19.691% and 2.253% and 19.772% and 18.717% and 25.052% and 20.656% and 33.770% and 18.734% and 25.692% and 28.421% and 33.333%
